Among the data in patent US11925629B2, “Heterocyclic inhibitors of ERK1 and ERK2 and their use in the treatment of cancer” (Asana Biosciences, LLC, priority 2015, dated 2024) are IC50 values, retold here.

The structures appear in SMILES notation. Like-named read-outs stand apart in the source and are kept apart here. Where only a bound is given, the exact number is not on record here.

Common to all, as to assay type: cell-based, human
Test [1] concerns phosphorylation of RSK1(S380) (the downstream target of ERK1/2). Nature of the test: Phospho-RSK1(S380) ELISA assay in HT-29 cells. The conditions noted are these: Homo sapiens, HT-29, HT29 cells, read-out: Mechanistic Cell Assay RSK1 Phos HT29 IC50. Summed up:
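IC50 values derive from a variable-slope sigmoidal fit of sandwich-ELISA signal (450 nm) for RSK1 Ser380 phosphorylation. The cells were B-RafV600E HT-29 colorectal line, exposed to serially diluted compound for 2 h after overnight seeding, then lysed at 4° C.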
A general note: In an ELISA, binding on a coated surface is turned into a signal by an enzyme label.

The test system of test [2] is HCT116 (colorectal carcinoma, K Ras G13D) cells. Put plainly: Cell proliferation (Alamar Blue) assay, HCT116. The conditions noted are these: Homo sapiens, HCT-116, HCT116 cells. The method in brief:
(§1)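 Cells seeded at 5000/well and allowed 16-24 h at 37° C./5% CO2, then exposed to 3-fold serial dilutions (typically 0.0005 to 10 uM) for 72 h. Viability read by Alamar Blue (1×, 1-3 h) fluorescence at 540/590 nm; IC50 from variable-slope sigmoidal fit.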

For test [3], the system named is HT-29 (colorectal carcinoma, B-RafV600E) cells. Put plainly: Cell proliferation (Alamar Blue) assay, HT-29. The settings on record: Homo sapiens, HT-29, HT29 cells. The method in brief:
as §1
(Alamar Blue is a resazurin reagent that responds to reducing activity.)

The term IC50 denotes the concentration at which inhibition is half-maximal.

Consider `Cc1cnc(Nc2ccc(F)c(C(=O)N(C)C)c2)nc1-n1ccc(C(=O)NC(CO)c2cccc(Cl)c2)c1` (stereo not drawn) [Example 194, N-(1-(3-chlorophenyl)-2-hydroxyethyl)-1-(2-((3-(dimethylcarbamoyl)-4-fluorophenyl)amino)-5-methylpyrimidin-4-yl)-1H-pyrrole-3-carboxamide], for which the IC50 in test [1] (phospho-RSK1(S380)) was 250 to 500 nM; in test [2], 500 to 2500 nM; in test [3], 250 to 500 nM.

For the compound `COc1cc(Nc2ncc(C)c(-n3ccc(C(=O)NC(CO)c4ccccc4)c3)n2)cc(OC)c1OC` (stereo not drawn) [Example 121, N-(2-hydroxy-1-phenylethyl)-1-(5-methyl-2-((3,4,5-trimethoxy-phenyl)amino)pyrimidin-4-yl)-1H-pyrrole-3-carboxamide], the IC50 in test [1] (phospho-RSK1(S380)), in test [2] and in test [3] was 250 to 500 nM each time.

Take `Cc1cnc(Nc2ccc3c(c2)OC(F)(F)O3)nc1-n1ccc(C(=O)N[C@H](CO)c2ccc(F)c(Cl)c2)c1` [Example 69, (S)-N-(1-(3-chloro-4-fluoro-phenyl)-2-hydroxy-ethyl)-1-(2-((2,2-difluoro-benzo[d][1,3]dioxol-5-yl)amino)-5-methyl-pyrimidin-4-yl)-1H-pyrrole-3-carboxamide]: the IC50 in test [1] (phospho-RSK1(S380)), in test [2] and in test [3] was 500 to 2500 nM each time.

Take `Cc1cnc(Nc2ccc(F)cc2Cl)nc1-n1ccc(C(=O)NC(CO)c2cccc(Cl)c2)c1` (stereo not drawn) [Example 31, 1-(2-((2-chloro-4-fluorophenyl)amino)-5-methyl-pyrimidin-4-yl)-N-(1-(3-chlorophenyl)-2-hydroxy-ethyl)-1H-pyrrole-3-carboxamide]: the IC50 in test [1] (phospho-RSK1(S380)) lay within 500 to 2500 nM; in test [2], 500 to 2500 nM; in test [3], 250 to 500 nM.

Regarding `Cc1cnc(Nc2ccc3c(c2)OCO3)nc1-n1ccc(C(=O)NC(CO)c2cccc(Cl)c2F)c1` (stereo not drawn) [Example 70, 1-(2-(benzo[d][1,3]dioxol-5-ylamino)-5-methyl-pyrimidin-4-yl)-N-(1-(3-chloro-2-fluorophenyl)-2-hydroxy-ethyl)-1H-pyrrole-3-carboxamide], the results for the IC50 in test [1] (phospho-RSK1(S380)), in test [2] and in test [3] were 250 to 500 nM, 500 to 2500 nM and more than 2500 nM, respectively.

`COc1cc(Nc2ncc(C)c(-n3ccc(C(=O)N[C@H](CO)c4ccc(F)c(Cl)c4)c3)n2)cc(OC)c1OC` [Example 126, (S)-N-(1-(3-chloro-4-fluorophenyl)-2-hydroxy-ethyl)-1-(5-methyl-2-((3,4,5-trimethoxy-phenyl)amino)pyrimidin-4-yl)-1H-pyrrole-3-carboxamide]: the IC50 in test [1] (phospho-RSK1(S380)) was 100 to 250 nM; in test [2], not above 100 nM; in test [3], 100 to 250 nM.

On to `COC[C@@H](NC(=O)c1ccn(-c2nc(Nc3ccc4c(c3)OCO4)ncc2C)c1)c1ccccc1` [Example 64, (S)-1-(2-(benzo[d][1,3]dioxol-5-ylamino)-5-methyl-pyrimidin-4-yl)-N-(2-methoxy-1-phenylethyl)-1H-pyrrole-3-carboxamide], for which the values for the IC50 in test [1] (phospho-RSK1(S380)), in test [2] and in test [3] were 500 to 2500 nM, 500 to 2500 nM and 250 to 500 nM, respectively.

On to `Cc1cnc(NC2CCOCC2)nc1-n1cnc(C(=O)NCc2ccccc2CO)c1` [Example 287, N-(2-(hydroxymethyl)benzyl)-1-(5-methyl-2-((tetrahydro-2H-pyran-4-yl)amino)pyrimidin-4-yl)-1H-imidazole-4-carboxamide], for which the IC50 is 500 to 2500 nM in test [1] (phospho-RSK1(S380)), 250 to 500 nM in test [2] and not above 100 nM in test [3].

Regarding `NCC(NC(=O)c1ccn(-c2ccnc(Nc3ccc(F)cc3)c2)c1)c1ccccc1` (stereo not drawn) [Example 206, N-(2-amino-1-phenylethyl)-1-(2-((4-fluorophenyl)amino)pyridin-4-yl)-1H-pyrrole-3-carboxamide], the IC50 in test [1] (phospho-RSK1(S380)) is 500 to 2500 nM; in test [2], more than 2500 nM; in test [3], 500 to 2500 nM.

On to `Cc1cnc(Nc2ccc3c(c2)OC(F)(F)O3)cc1-n1ccc(C(=O)NC(CO)c2ccccc2)c1` (stereo not drawn) [Example 80, 1-(2-((2,2-difluorobenzo [d][1,3]dioxol-5-yl)-amino)-5-methyl-pyridin-4-yl)-N-(2-hydroxy-1-phenyl-ethyl)-1H-pyrrole-3-carboxamide], for which the IC50 in test [1] (phospho-RSK1(S380)), in test [2] and in test [3] was more than 2500 nM in each case.

Turning to `Cc1cnc(Nc2ccnn2C)nc1-n1cnc(C(=O)N[C@H](CO)c2cccc(Cl)c2)c1` [Example 277, (S)-N-(1-(3-chlorophenyl)-2-hydroxyethyl)-1-(5-methyl-2-((1-methyl-1H-pyrazol-5-yl)amino)pyrimidin-4-yl)-1H-imidazole-4-carboxamide], the IC50 in test [1] (phospho-RSK1(S380)) was in the range of 500 to 2500 nM; in test [2] it was 250 to 500 nM; in test [3], 250 to 500 nM.

As to `Cc1cnc(N[C@H]2CCOC2)nc1-n1cnc(C(=O)NCc2cccc(Cl)c2CO)c1` [Example 270], the IC50 in test [1] (phospho-RSK1(S380)) is 100 to 250 nM; in test [2], not above 100 nM; in test [3] it was not above 100 nM.

In the case of `CC(=O)OCc1c(Cl)cccc1CNC(=O)c1cn(-c2nc(NC3CCOCC3)ncc2C)cn1` [Example 340, 2-chloro-6-((1-(5-methyl-2-((tetrahydro-2H-pyran-4-yl)amino)pyrimidin-4-yl)-1H-imidazole-4-carboxamido)methyl)benzyl acetate], the IC50 in test [1], in test [2] and in test [3] was not above 100 nM in each case.

With `O=C(NC(CO)c1ccccc1)c1ccn(-c2nc(Nc3ccccc3Cl)ncc2F)c1` (stereo not drawn) [Example 67, 1-(2-((2-chloro-phenyl)amino)-5-fluoro-pyrimidin-4-yl)-N-(2-hydroxy-1-phenylethyl)-1H-pyrrole-3-carboxamide], the values for the IC50 in test [1] (phospho-RSK1(S380)), in test [2] and in test [3] were 500 to 2500 nM, more than 2500 nM and more than 2500 nM, respectively.

On to `Cc1cnc(NC2CCOCC2)nc1-n1cnc(C(=O)N[C@H](CNC2CCOCC2)c2cccc(Cl)c2)c1` [Example 308, (S)-N-(1-(3-chlorophenyl)-2-((tetrahydro-2H-pyran-4-yl)amino)ethyl)-1-(5-methyl-2-((tetrahydro-2H-pyran-4-yl)amino)pyrimidin-4-yl)-1H-imidazole-4-carboxamide], for which the IC50 in test [1] is 500 to 2500 nM; in test [2] it was 250 to 500 nM; in test [3] it was more than 2500 nM.

Regarding `Cc1cnc(N[C@H]2CCOC2)nc1-n1ccc(C(=O)N(C)C(CO)c2cccc(Cl)c2)c1` (stereo partly drawn) [Example 212, N-(1-(3-chlorophenyl)-2-hydroxyethyl)-N-methyl-1-(5-methyl-2-(((S)-tetrahydrofuran-3-yl)amino)pyrimidin-4-yl)-1H-pyrrole-3-carboxamide], the IC50 in test [1] (phospho-RSK1(S380)) is 500 to 2500 nM; in test [2] it was more than 2500 nM; in test [3] it was 500 to 2500 nM.

As to `Cc1cnc(Nc2ccc3c(c2)CCCO3)nc1-n1ccc(C(=O)NC(CO)c2ccccc2)c1` (stereo not drawn) [Example 173, 1-(2-(chroman-6-ylamino)-5-methylpyrimidin-4-yl)-N-(2-hydroxy-1-phenylethyl)-1H-pyrrole-3-carboxamide], the IC50 in test [1] (phospho-RSK1(S380)), in test [2] and in test [3] was 100 to 250 nM throughout.

As for `Cc1cnc(Nc2ccc(F)cc2)nc1-n1ccc(C(=O)N[C@H](CO)c2ccc(F)c(Cl)c2)c1` [Example 125, (S)-N-(1-(3-chloro-4-fluorophenyl)-2-hydroxy-ethyl)-1-(2-((4-fluoro-phenyl)-amino)-5-methyl-pyrimidin-4-yl)-1H-pyrrole-3-carboxamide], the results for the IC50 in test [1] (phospho-RSK1(S380)), in test [2] and in test [3] were 100 to 250 nM, 250 to 500 nM and 250 to 500 nM, respectively.

Take `O=C(N[C@H](CO)c1cccc(Cl)c1)c1cn(-c2ccnc(Nc3ccccc3)c2)cn1` [Example 72, (S)-N-(1-(3-chlorophenyl)-2-hydroxy-ethyl)-1-(2-(phenylamino)pyridin-4-yl)-1H-imidazole-4-carboxamide]: the IC50 in test [1] (phospho-RSK1(S380)) is not above 100 nM; in test [2], more than 2500 nM; in test [3] it was 500 to 2500 nM.

For the compound `CNC(=O)c1ccc(Nc2ncc(C)c(-n3ccc(C(=O)NC(CO)c4cccc(Cl)c4)c3)n2)cc1` (stereo not drawn) [Example 196, N-(1-(3-chlorophenyl)-2-hydroxyethyl)-1-(5-methyl-2-((4-(methylcarbamoyl)phenyl)amino)pyrimidin-4-yl)-1H-pyrrole-3-carboxamide], the IC50 in test [1] (phospho-RSK1(S380)), in test [2] and in test [3] was 500 to 2500 nM in each case.

For the compound `Cc1cnc(N[C@@H]2CCOC2)nc1-n1ccc(C(=O)N[C@H](CO)c2cccc(Cl)c2)c1` [Example 162, N-((S)-1-(3-chlorophenyl)-2-hydroxy-ethyl)-1-(5-methyl-2-(((R)-tetra-hydrofuran-3-yl)amino)pyrimidin-4-yl)-1H-pyrrole-3-carboxamide], the IC50 in test [1] (phospho-RSK1(S380)) was not above 100 nM; in test [2], 500 to 2500 nM; in test [3] it was 100 to 250 nM.

For the compound `Cc1cnc(Nc2ccc(N3CCC(N4CCNCC4)CC3)cc2)nc1-n1ccc(C(=O)NC(CO)c2ccccc2)c1` (stereo not drawn) [Example 178, N-(2-hydroxy-1-phenylethyl)-1-(5-methyl-2-((4-(4-(piperazin-1-yl)piperidin-1-yl)phenyl)amino)pyrimidin-4-yl)-1H-pyrrole-3-carboxamide], the IC50 is 250 to 500 nM in test [1] (phospho-RSK1(S380)), 500 to 2500 nM in test [2] and more than 2500 nM in test [3].

Consider `Cc1cnc(Nc2ccc(F)cc2Cl)nc1-n1ccc(C(=O)NC(CN)c2cccc(Cl)c2)c1` (stereo not drawn) [Example 169, N-(2-amino-1-(3-chlorophenyl)ethyl)-1-(2-((2-chloro-4-fluorophenyl)amino)-5-methylpyrimidin-4-yl)-1H-pyrrole-3-carboxamide], for which the IC50 in test [1] (phospho-RSK1(S380)) lay in the range of 500 to 2500 nM; in test [2], 500 to 2500 nM; in test [3], 250 to 500 nM.
